From publication PMC4503722, “Novel Phenotypic Outcomes Identified for a Public Collection of Approved Drugs from a Publicly Accessible Panel of Assays” (PLoS ONE, 2015)
Read-outs that look alike come from different tables or passages of the source.

Tests used:
DLD-1 = experiment: cells; assay type: cell-based; conditions: basal; for IC50 / Basal_Viability ATP DLD-1 IC50/EC50: assay number 23; for IC50: read-out: Basal_Viability ATP DLD-1 summarized IC50
HeLa cells = experiment: cells; assay type: cell-based;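 as to Hela CellCycMod PI 4N summarized IC50: value tracks stimulation of 4N DNA content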
HT-29 = experiment: cells; assay type: cell-based; conditions: basal; for IC50 / Basal_Viability ATP HT-29 IC50/EC50: assay number 28; for IC50: read-out: Basal_Viability ATP HT-29 summarized IC50
Colo320 = experiment: cells; assay type: cell-based; conditions: basal; for IC50 / Basal_Viability ATP Colo 320 IC50/EC50: assay number 27; for IC50: read-out: Basal_Viability ATP Colo 320 summarized IC50
[1] = tested on: endothelial tube formation in co-cultures of ECFCs and ADSCs treated with VEGF; experiment: cells; assay type: cell-based, human; conditions: for IC50: read-out: VEGF_ADSC\ECFC Angio CD31 TubeArea summarized IC50
RKO = experiment: cells; assay type: cell-based; conditions: basal; for IC50 / Basal_Viability ATP RKO IC50/EC50: assay number 29; for IC50: read-out: Basal_Viability ATP RKO summarized IC50
[2] = tested on: ECFC/ADSC co-culture cell nuclei number; conditions: for IC50: read-out: VEGF_ADSC\ECFC Angio Hoechst NucArea summarized IC50
SW480 = experiment: cells; assay type: cell-based; conditions: basal; for IC50 / Basal_Viability ATP SW480 IC50/EC50: assay number 24; for IC50: read-out: Basal_Viability ATP SW480 summarized IC50
SNU-C1 = experiment: cells; assay type: cell-based; conditions: basal; for IC50 / Basal_Viability ATP SNU-C1 IC50/EC50: assay number 30; for IC50: read-out: Basal_Viability ATP SNU-C1 summarized IC50
[3] = tested on: HCT116 cells treated with a GSK3β inhibitor; experiment: cells; assay type: cell-based; conditions: assay number 26; GSK3b inhibitor pretreated
HCT116 = experiment: cells; assay type: cell-based; conditions: basal; for Basal_Viability ATP HCT116 IC50/EC50 / IC50: assay number 25; for IC50: read-out: Basal_Viability ATP HCT116 summarized IC50
[4] = assay number 14, 2N, read-out: Hela CellCycMod PI 2N summarized IC50
[5] = assay number 15, S phase, read-out: Hela CellCycMod PI S Phase summarized IC50
[6] = assay number 16, 4N, read-out: Hela CellCycMod PI 4N summarized IC50
[7] = assay number 17, MI, read-out: Hela CellCycMod PI MI summarized IC50
[8] = assay number 18, cell number, read-out: Hela CellCycMod PI Cell Number summarized IC50

SMILES: O=c1[nH]cc(F)c(=O)[nH]1 [NCGC00015442-15]
- IC50 (DLD-1): > 20 µM
- IC50 (HeLa cells; [4]): > 10 µM
- IC50 (HeLa cells; [5]): > 10 µM
- IC50 (HeLa cells; [6]): > 10 µM
- IC50 (HeLa cells; [7]): > 10 µM
- IC50 (HeLa cells; [8]): > 10 µM
- IC50 (HT-29): > 20 µM
- IC50 (Colo320): > 20 µM
- IC50 [1]: > 10 µM
- IC50 (RKO): > 20 µM
- IC50 [2]: > 10 µM
- IC50 (SW480): > 20 µM
- IC50 (SNU-C1): > 20 µM

SMILES: C=Cc1c(C)c2cc3nc(cc4[nH]c(cc5nc(cc1[nH]2)C(C)=C5CCC(=O)O)c(CCC(=O)OC)c4C)[C@@]1(C)C3=CC=C(C(=O)OC)[C@@H]1C(=O)OC [NCGC00344558-01]
- Basal_Viability ATP HT-29 IC50/EC50 (HT-29): 3.9401 µM
- Basal_Viability ATP Colo 320 IC50/EC50 (Colo320): 9.6205 µM
- GSK3b inh pretreated_Viability ATP HCT116 IC50/EC50 [3]: 4.2601 µM
- Basal_Viability ATP RKO IC50/EC50 (RKO): 3.5296 µM
- Basal_Viability ATP HCT116 IC50/EC50 (HCT116): 5.6514 µM
- Basal_Viability ATP SW480 IC50/EC50 (SW480): > 6.667 µM
- Basal_Viability ATP SNU-C1 IC50/EC50 (SNU-C1): 5.854 µM

SMILES: Fc1ccc(C(OCCN2CCN(CCCc3ccccc3)CC2)c2ccc(F)cc2)cc1 [NCGC00015300-10]
- IC50/EC50, Basal_Viability ATP DLD-1 (assay number 23) (DLD-1): 0.9032 µM
- IC50/EC50, Hela CellCycMod PI 2N (assay number 14) (HeLa cells; 2N): > 10 µM
- IC50/EC50, Hela CellCycMod PI 4N (assay number 16) (HeLa cells; 4N): > 10 µM
- IC50/EC50, Hela CellCycMod PI Cell Number (assay number 18) (HeLa cells; Cell Number): 3.2 µM
- IC50/EC50, Hela CellCycMod PI MI (assay number 17) (HeLa cells; MI): > 10 µM
- IC50/EC50, Hela CellCycMod PI S Phase (assay number 15) (HeLa cells; S Phase): > 10 µM
- IC50/EC50, Basal_Viability ATP HT-29 (assay number 28) (HT-29): 1.4851 µM
- IC50/EC50, Basal_Viability ATP Colo 320 (assay number 27) (Colo320): > 20 µM
- IC50/EC50, Basal_Viability ATP RKO (assay number 29) (RKO): 0.113 µM
- IC50/EC50, Basal_Viability ATP HCT116 (assay number 25) (HCT116): 4.8718 µM
- IC50/EC50, Basal_Viability ATP SW480 (assay number 24) (SW480): 2.068 µM
- IC50/EC50, Basal_Viability ATP SNU-C1 (assay number 30) (SNU-C1): 1.817 µM

SMILES: CC[n+]1c(-c2ccccc2)c2cc(N)ccc2c2ccc(N)cc21 [NCGC00091387-08]
- IC50 (DLD-1): > 20 µM
- IC50 (HeLa cells; [4]): > 10 µM
- IC50 (HeLa cells; [5]): > 10 µM
- IC50 (HeLa cells; [6]): > 10 µM
- IC50 (HeLa cells; [7]): > 10 µM
- IC50 (HeLa cells; [8]): > 10 µM
- IC50 (HT-29): > 20 µM
- IC50 (Colo320): > 20 µM
- IC50 (RKO): 3.35 µM
- IC50 (HCT116): 4.44 µM
- IC50 (SW480): > 20 µM
- IC50 (SNU-C1): > 20 µM

SMILES: Nc1nc(Cl)nc2c1ncn2[C@@H]1O[C@H](CO)[C@@H](O)[C@@H]1F [NCGC00164553-02]
- Basal_Viability ATP DLD-1 IC50/EC50 (DLD-1): 0.1636 µM
- Hela CellCycMod PI 2N IC50/EC50 (HeLa cells; assay number 14, 2N): > 10 µM
- Hela CellCycMod PI S Phase IC50/EC50 (HeLa cells; assay number 15, S phase): > 10 µM
- Hela CellCycMod PI 4N IC50/EC50 (HeLa cells; assay number 16, 4N): > 10 µM
- Hela CellCycMod PI MI IC50/EC50 (HeLa cells; assay number 17, MI): > 10 µM
- Hela CellCycMod PI Cell Number IC50/EC50 (HeLa cells; assay number 18, cell number): 0.00516 µM
- Basal_Viability ATP HT-29 IC50/EC50 (HT-29): > 20 µM
- Basal_Viability ATP Colo 320 IC50/EC50 (Colo320): > 20 µM
- GSK3b inh pretreated_Viability ATP HCT116 IC50/EC50 [3]: 0.001 µM
- Basal_Viability ATP RKO IC50/EC50 (RKO): 0.001 µM
- Basal_Viability ATP HCT116 IC50/EC50 (HCT116): 0.001 µM
- Basal_Viability ATP SNU-C1 IC50/EC50 (SNU-C1): > 20 µM

SMILES: O=C(O)C1(C(=O)O)CCC1.[NH2-].[NH2-].[Pt+2] [NCGC00263858-02]
- Basal_Viability ATP DLD-1 IC50/EC50 (DLD-1): > 20 µM
- Basal_Viability ATP HT-29 IC50/EC50 (HT-29): > 20 µM
- Basal_Viability ATP Colo 320 IC50/EC50 (Colo320): > 20 µM
- VEGF_ADSC\ECFC Angio CD31 TubeArea IC50/EC50 [1]: > 10 µM
- Basal_Viability ATP RKO IC50/EC50 (RKO): > 20 µM
- VEGF_ADSC\ECFC Angio Hoechst NucArea IC50/EC50 [2]: > 10 µM
- Basal_Viability ATP HCT116 IC50/EC50 (HCT116): > 20 µM
- Basal_Viability ATP SW480 IC50/EC50 (SW480): > 20 µM
- Basal_Viability ATP SNU-C1 IC50/EC50 (SNU-C1): > 20 µM

SMILES: O=C1C(=O)c2ccccc2C(O)=C1C1CCC(c2ccc(Cl)cc2)CC1 (stereo not drawn) [NCGC00016961-06]
- Basal_Viability ATP DLD-1 IC50/EC50 (DLD-1): 0.0838 µM
- Hela CellCycMod PI 2N IC50/EC50 (HeLa cells; assay number 14, 2N): > 10 µM
- Hela CellCycMod PI 4N IC50/EC50 (HeLa cells; assay number 16, 4N): > 10 µM
- Hela CellCycMod PI MI IC50/EC50 (HeLa cells; assay number 17, MI): > 10 µM
- Hela CellCycMod PI Cell Number IC50/EC50 (HeLa cells; assay number 18, cell number): > 10 µM
- Basal_Viability ATP HT-29 IC50/EC50 (HT-29): 0.4112 µM
- Basal_Viability ATP Colo 320 IC50/EC50 (Colo320): 0.1764 µM
- VEGF_ADSC\ECFC Angio CD31 TubeArea IC50/EC50 [1]: 5.1845 µM
- Basal_Viability ATP RKO IC50/EC50 (RKO): 0.1142 µM
- VEGF_ADSC\ECFC Angio Hoechst NucArea IC50/EC50 [2]: > 10 µM
- Basal_Viability ATP HCT116 IC50/EC50 (HCT116): 0.1384 µM
- Basal_Viability ATP SW480 IC50/EC50 (SW480): 0.0946 µM
- Basal_Viability ATP SNU-C1 IC50/EC50 (SNU-C1): 0.3675 µM

SMILES: Cc1c(C)c2c(c(C)c1O)CC[C@@](C)(CCC[C@H](C)CCC[C@H](C)CCCC(C)C)O2 [NCGC00142625-10]
- IC50 (DLD-1): > 20 µM
- IC50 (HT-29): > 20 µM
- IC50 (Colo320): > 20 µM
- IC50 [1]: > 10 µM
- IC50 (RKO): 2.61 µM
- IC50 [2]: > 10 µM
- IC50 (HCT116): > 20 µM
- IC50 (SW480): > 20 µM
- IC50 (SNU-C1): > 20 µM
